Source: US20240174723A1, “STAPLED ANTIMICROBIAL PEPTIDES (STAMPS) AND USES THEREOF” (Lytica Therapeutics, Inc., priority 2021, published 2024)
≈ marks a conversion by molar mass, not a printed value. Positions of bridges follow the written chain, without caps; N, C: chain ends. Non-standard residues stand in square brackets, D forms with d. Residues, ends and D or L forms follow the SMILES beside them. Phe(4-tBu) = CC(C)(C)c1ccc(C[C@H](N)C(=O)O)cc1; S5 = C=CCCC[C@](C)(N)C(=O)O; Orn = NCCC[C@H](N)C(=O)O

Key:
in vitro [1] = type: cell-based; conditions: human, Inhibitory Concentration at 50% Cytotoxicity (IC50) Human Liver Cells (HepG2)
How it was run: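 Cytotoxicity read by CellTiter-Glo luminescence after 48 h at 37 °C exposure to serially diluted StAMPs or vehicle. HepG2 cells were grown in EMEM plus 10% FBS and given 4 h to attach before dosing; peptides came from a 5 mg/mL aqueous stock.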

A. baumannii = type: cell-based, Acinetobacter baumannii
How it was run: (§1)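 Visible-growth endpoint after 20-24 h at 37 °C defines the MIC. Test organisms, pre-grown to log phase, were exposed at 5×10^5 CFU/ml to peptide dilution series in standard or cation-adjusted Mueller-Hinton broth.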

in vitro [2] = type: cell-based; conditions: human
How it was run: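 LDH release (absorbance at 490 nm) measured in the media of cells treated with serially diluted StAMPs or vehicle at 37 °C: 90 min for renal RPTEC, 48 h for liver HepG2. Cells were seeded overnight beforehand and media refreshed before dosing.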

E. coli = type: cell-based, Escherichia coli
How it was run: as §1

P. aeruginosa = type: cell-based, Pseudomonas aeruginosa
How it was run: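 MIC taken as lowest peptide concentration with no visible growth after 20-24 h at 37 °C. Peptide serial dilutions from water stocks met P. aeruginosa inoculum (5×10^5 CFU/ml final) in MHB or MHB II, per a CLSI-adapted microbroth protocol.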

K. pneumoniae = type: cell-based, Klebsiella pneumoniae
How it was run: as §1

S. aureus = type: cell-based, Staphylococcus aureus
How it was run: as §1

SMILES	Minimum Inhibitory Concentration (MIC) A. baumannii (A. baumannii) [µg/mL]	IC50 at 90 min (in vitro [2]) [µg/mL]	Minimum Inhibitory Concentration (MIC) E. coli (E. coli) [µg/mL]	Minimum Inhibitory Concentration (MIC) P. aeruginosa (P. aeruginosa) [µg/mL]	Minimum Inhibitory Concentration (MIC) K. pneumoniae (K. pneumoniae) [µg/mL]	Minimum Inhibitory Concentration (MIC) S. aureus (S. aureus) [µg/mL]	IC50 at 48 hours (in vitro [1]) [µg/mL]
CC(C)[C@@H]1NC(=O)[C@@](C)(NC(=O)[C@H](C)NC(=O)[C@H](CCCCN)NC(=O)CNC(=O)[C@H](Cc2ccccc2)NC(=O)[C@H](CCCCN)NC(=O)[C@H](CCCCN)NC(=O)[C@H](CCCCN)NC(=O)[C@H](CCCCN)NC(=O)[C@H](Cc2c[nH]cn2)NC(=O)[C@]2(C)CCCC=CCCC[C@](C)(NC(=O)CN)C(=O)NCC(=O)N[C@@H](CCCCN)C(=O)N[C@@H](Cc3ccccc3)C(=O)N2)CCCC=CCCC[C@@](C)(C(=O)N[C@@H](C)C(=O)N[C@@H](CCCCN)C(=O)N[C@@H](CCCCN)C(N)=O)NC(=O)[C@H](CCC(=O)O)NC(=O)[C@H](Cc2ccccc2)NC1=O [compound 22] (H-G[S5]GKF[S5]HKKKKFGKA[S5]VFE[S5]AKK-NH2; staple 2-6, 16-20)	3	202 (≈ 75.8 µM)	2	4	4	>64	> 200
CC(C)[C@@H]1NC(=O)[C@@](C)(NC(=O)[C@H](C)NC(=O)[C@H](CCCCN)NC(=O)CNC(=O)[C@H](Cc2ccccc2)NC(=O)[C@H](CCCCN)NC(=O)[C@H](CCCCN)NC(=O)[C@H](CCCCN)NC(=O)[C@H](CO)NC(=O)[C@H](Cc2c[nH]cn2)NC(=O)[C@]2(C)CCCC=CCCC[C@](C)(NC(=O)CN)C(=O)NCC(=O)N[C@@H](CCCCN)C(=O)N[C@@H](Cc3ccccc3)C(=O)N2)CCCC=CCCC[C@@](C)(C(=O)N[C@@H](C)C(=O)N[C@@H](CCCCN)C(=O)N[C@@H](CCCCN)C(N)=O)NC(=O)[C@H](CCC(=O)O)NC(=O)[C@H]([C@@H](C)O)NC1=O [compound 15] (H-G[S5]GKF[S5]HSKKKFGKA[S5]VTE[S5]AKK-NH2; staple 2-6, 16-20)	2	> 200	6	8	16	>64	> 200
CC(C)[C@@H]1NC(=O)[C@@](C)(NC(=O)[C@H](C)NC(=O)[C@H](CCCCN)NC(=O)CNC(=O)[C@H](Cc2ccccc2)NC(=O)[C@H](CCCCN)NC(=O)[C@H](CCCCN)NC(=O)[C@H](CCCCN)NC(=O)[C@H](CCCCN)NC(=O)[C@H](Cc2c[nH]cn2)NC(=O)[C@]2(C)CCCC=CCCC[C@](C)(NC(=O)CN)C(=O)NCC(=O)N[C@@H](CCCCN)C(=O)N[C@@H](Cc3ccccc3)C(=O)N2)CCCC=CCCC[C@@](C)(C(=O)N[C@@H](C)C(=O)N[C@@H](CCCCN)C(=O)N[C@@H](CCCCN)C(N)=O)NC(=O)[C@H](CCC(=O)O)NC(=O)CNC1=O [compound 3] (H-G[S5]GKF[S5]HKKKKFGKA[S5]VGE[S5]AKK-NH2; staple 2-6, 16-20)	4	> 200	4	4	16	>64	> 200
CC(C)[C@@H]1NC(=O)[C@@](C)(NC(=O)[C@H](C)NC(=O)[C@H](CCCCN)NC(=O)CNC(=O)[C@H](Cc2ccccc2)NC(=O)[C@H](CCCCN)NC(=O)[C@H](CCCCN)NC(=O)[C@H](CCCCN)NC(=O)[C@H](CO)NC(=O)[C@H](CCCCN)NC(=O)[C@]2(C)CCCC=CCCC[C@](C)(NC(=O)CN)C(=O)NCC(=O)N[C@@H](CCCCN)C(=O)N[C@@H](Cc3ccccc3)C(=O)N2)CCCC=CCCC[C@@](C)(C(=O)N[C@@H](C)C(=O)N[C@@H](CCCCN)C(=O)N[C@@H](CCCCN)C(N)=O)NC(=O)[C@H](CCC(=O)O)NC(=O)[C@H](Cc2ccccc2)NC1=O [compound 20] (H-G[S5]GKF[S5]KSKKKFGKA[S5]VFE[S5]AKK-NH2; staple 2-6, 16-20)	2	70 (≈ 26.8 µM)	2	2	2	64	105 (≈ 40.2 µM)

More lines, main results first:

Minimum Inhibitory Concentration (MIC) A. baumannii (A. baumannii) [µg/mL]	IC50 at 90 min (in vitro [2]) [µg/mL]	Minimum Inhibitory Concentration (MIC) E. coli (E. coli) [µg/mL]	Minimum Inhibitory Concentration (MIC) P. aeruginosa (P. aeruginosa) [µg/mL]	Minimum Inhibitory Concentration (MIC) K. pneumoniae (K. pneumoniae) [µg/mL]	Minimum Inhibitory Concentration (MIC) S. aureus (S. aureus) [µg/mL]	SMILES	IC50 at 48 hours (in vitro [1]) [µg/mL]
4	9 (≈ 3.3 µM)	4	8	8	16	CC(C)[C@@H]1NC(=O)[C@H](C(C)C)NC(=O)[C@@](C)(NC(=O)[C@H](C)NC(=O)[C@H](CCCCN)NC(=O)CNC(=O)[C@H](Cc2ccc(C(C)(C)C)cc2)NC(=O)[C@H](CCCCN)NC(=O)[C@H](CCCCN)NC(=O)[C@H](CCCCN)NC(=O)[C@H](CCCCN)NC(=O)[C@H](Cc2c[nH]cn2)NC(=O)[C@]2(C)CCCC=CCCC[C@](C)(NC(=O)CN)C(=O)NCC(=O)N[C@@H](CCCCN)C(=O)N[C@@H](Cc3ccc(C(C)(C)C)cc3)C(=O)N2)CCCC=CCCC[C@@](C)(C(=O)N[C@@H](C)C(=O)N[C@@H](CCCCN)C(=O)N[C@@H](CCCCN)C(N)=O)NC(=O)[C@H](CCC(=O)O)NC1=O [compound 31] (H-G[S5]GK[Phe(4-tBu)][S5]HKKKK[Phe(4-tBu)]GKA[S5]VVE[S5]AKK-NH2; staple 2-6, 16-20)	101 (≈ 37 µM)
4	30 (≈ 11.1 µM)	16	16	8	>64	CC(C)[C@@H]1NC(=O)[C@@](C)(NC(=O)[C@H](C)NC(=O)[C@H](CCCCN)NC(=O)[C@H](Cc2c[nH]c3ccccc23)NC(=O)[C@H](Cc2c[nH]c3ccccc23)NC(=O)[C@H](CCCCN)NC(=O)[C@H](CCCCN)NC(=O)[C@H](CCCCN)NC(=O)[C@H](CO)NC(=O)[C@H](Cc2c[nH]cn2)NC(=O)[C@]2(C)CCCC=CCCC[C@](C)(NC(=O)CN)C(=O)NCC(=O)N[C@@H](CCCCN)C(=O)N[C@@H](Cc3ccccc3)C(=O)N2)CCCC=CCCC[C@@](C)(C(=O)N[C@@H](C)C(=O)N[C@@H](CCCCN)C(=O)N[C@@H](CCCCN)C(N)=O)NC(=O)[C@H](CCC(=O)O)NC(=O)CNC1=O [compound 62] (H-G[S5]GKF[S5]HSKKKWWKA[S5]VGE[S5]AKK-NH2; staple 2-6, 16-20)	35 (≈ 13 µM)
2	100 (≈ 41 µM)	4	2	32	64	CC(C)[C@@H]1NC(=O)[C@@](C)(NC(=O)[C@H](C)NC(=O)[C@H](CCCN)NC(=O)CNC(=O)[C@H](Cc2ccccc2)NC(=O)[C@H](CCCN)NC(=O)[C@H](CCCN)NC(=O)[C@H](CCCN)NC(=O)[C@H](CCCN)NC(=O)[C@H](CCCN)NC(=O)[C@]2(C)CCCC=CCCC[C@](C)(NC(=O)CN)C(=O)NCC(=O)N[C@@H](CCCN)C(=O)N[C@@H](Cc3ccccc3)C(=O)N2)CCCC=CCCC[C@@](C)(C(=O)N[C@@H](C)C(=O)N[C@@H](CCCN)C(=O)N[C@@H](CCCN)C(N)=O)NC(=O)[C@H](CCC(=O)O)NC(=O)CNC1=O [compound 24] (H-G[S5]G[Orn]F[S5][Orn][Orn][Orn][Orn][Orn]FG[Orn]A[S5]VGE[S5]A[Orn][Orn]-NH2; staple 2-6, 16-20)	44 (≈ 18 µM)
4	24 (≈ 9.02 µM)	4	8	8	32	CC(C)[C@@H]1NC(=O)[C@@](C)(NC(=O)[C@H](C)NC(=O)[C@H](CCCCN)NC(=O)[C@H](Cc2c[nH]c3ccccc23)NC(=O)[C@H](Cc2ccccc2)NC(=O)[C@H](CCCCN)NC(=O)[C@H](CCCCN)NC(=O)[C@H](CCCCN)NC(=O)[C@H](CO)NC(=O)[C@H](Cc2c[nH]cn2)NC(=O)[C@]2(C)CCCC=CCCC[C@](C)(NC(=O)CN)C(=O)NCC(=O)N[C@@H](CCCCN)C(=O)N[C@@H](Cc3ccccc3)C(=O)N2)CCCC=CCCC[C@@](C)(C(=O)N[C@@H](C)C(=O)N[C@@H](CCCCN)C(=O)N[C@@H](CCCCN)C(N)=O)NC(=O)[C@H](CCC(=O)O)NC(=O)CNC1=O [compound 69] (H-G[S5]GKF[S5]HSKKKFWKA[S5]VGE[S5]AKK-NH2; staple 2-6, 16-20)	23 (≈ 8.64 µM)
